Data as given in the supplement of paper PMC11061612.

Legend:
[1] = compound: C=CCn1c(=O)c2cnc(Nc3ccc(N4CCN(C)CC4)cc3)nc2n1-c1cccc(C(C)(C)O)n1 [AZD1775]; settings: max 3 µM
Method in brief: (§1)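 Cancer cell lines were seeded into 1536-well plates in 7.5 μl medium (DMEM/F12 or RPMI, 10% FBS), held 24 hours at 37°C and 5% CO2, and dosed for 72 hours with final DMSO typically 0.2%. Luminescence from CellTiter-Glo 2.0, scaled between blank-well and DMSO-well means, served as viability. The single-agent IC50 was obtained from dose-response fits with a non-linear mixed effects model, each fit being a two-parameter logistic curve.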

[2] = compound: CC(=O)Nc1cccc(-n2c(=O)n(C3CC3)c(=O)c3c(Nc4ccc(I)cc4F)n(C)c(=O)c(C)c32)c1 [Trametinib]; settings: max 1 µM
Method in brief: as §1

[3] = compound: Cc1cc2ncnn2cc1Nc1ncc2c(n1)n(C1CCOCC1)c(=O)n2C [AZD7648]; settings: max 10 µM
Method in brief: as §1

[4] = compound: O=c1[nH]cc(F)c(=O)[nH]1 [5-Fluorouracil]; settings: max 20 µM
Method in brief: as §1

[5] = compound: Nc1ccn([C@@H]2O[C@H](CO)[C@@H](O)C2(F)F)c(=O)n1 [Gemcitabine]; settings: max 0.3 µM
Method in brief: as §1

[6] = compound: COc1cc([C@@H]2c3cc4c(cc3[C@@H](O[C@@H]3O[C@@H]5CO[C@@H](C)O[C@H]5[C@H](O)[C@H]3O)[C@H]3COC(=O)[C@H]23)OCO4)cc(OC)c1O [Etoposide]; settings: max 10 µM
Method in brief: as §1

[7] = compound: C1CN(CCC1(C(=O)N[C@@H](CCO)C2=CC=C(C=C2)Cl)N)C3=NC=NC4=C3C=CN4 [AZD5363]; settings: max 10 µM
Method in brief: as §1

[8] = compound: Cc1nc(-c2cn3c(n2)-c2ccc(-c4cnn(C(C)(C)C(N)=O)c4)cc2OCC3)n(C(C)C)n1 [Taselisib]; settings: max 10 µM
Method in brief: as §1

[9] = compound: CC(=O)c1c(C)c2cnc(Nc3ccc(N4CCNCC4)cn3)nc2n(C2CCCC2)c1=O [Palbociclib]; settings: max 10 µM
Method in brief: as §1

[10] = compound: CCc1c2c(nc3ccc(O)cc13)-c1cc3c(c(=O)n1C2)COC(=O)[C@]3(O)CC [SN-38]; settings: max 0.3 µM
Method in brief: as §1

[11] = compound: CC1=CN2[C@@H](C1)C=NC3=CC(=C(C=C3C2=O)OC)OCCCCCOC4=C(C=C5C(=C4)N=C[C@@H]6CC(=CN6C5=O)C)OC [SG3199]; settings: max 0.001 µM
Method in brief: as §1

[12] = compound: COc1cc2ncnc(Nc3ccc(F)c(Cl)c3)c2cc1OCCCN1CCOCC1 [Gefitinib]; settings: max 10 µM
Method in brief: as §1

[13] = compound: C[C@@H](Nc1cc(F)cc(F)c1)c1cc(C(=O)N(C)C)cc2c(=O)cc(N3CCOCC3)oc12 [AZD8186]; settings: max 10 µM
Method in brief: as §1

[14] = compound: CC1=C(C(=CC=C1)Cl)NC(=O)C2=CN=C(S2)NC3=CC(=NC(=N3)C)N4CCN(CC4)CCO [Dasatinib]; settings: max 2 µM
Method in brief: as §1

[15] = compound: COc1cccc2c1C(=O)c1c(O)c3c(c(O)c1C2=O)C[C@@](O)(C(=O)CO)C[C@@H]3O[C@H]1C[C@H](N)[C@H](O)[C@H](C)O1 [Doxorubicin]; settings: max 1 µM
Method in brief: as §1

[16] = compound: N#Cc1cnc(Nc2cc(NC[C@H]3CNCCO3)c(C(F)(F)F)cn2)cn1 [SRA737]; settings: max 10 µM
Method in brief: as §1

[17] = compound: Cc1c2c(nn1C)CSCc1cc(n(C)n1)CSc1cc(c3ccccc3c1)OCCCc1c(C(=O)O)n(C)c3c-2c(Cl)ccc13 [AZD5991]; settings: max 1 µM
Method in brief: as §1

[18] = compound: C[C@@H](Oc1cc(-c2cnn(C3CCNCC3)c2)cnc1N)c1c(Cl)ccc(F)c1Cl [Crizotinib]; settings: max 10 µM
Method in brief: as §1

[19] = compound: NC1(c2ccc(-c3nc4ccn5c(=O)[nH]nc5c4cc3-c3ccccc3)cc2)CCC1 [MK-2206]; settings: max 10 µM
Method in brief: as §1

[20] = compound: CCN(CCO)CCCOc1ccc2c(Nc3cc(CC(=O)Nc4cccc(F)c4)[nH]n3)ncnc2c1 [AZD2811]; settings: max 1 µM
Method in brief: as §1

[21] = compound: COc1nnc2ccc(N3CCC(c4ccc(OCCN5CCN(C)C(=O)[C@H]5C)cc4)CC3)nn12 [AZD5153]; settings: max 1 µM
Method in brief: as §1

[22] = compound: C[C@@H]1COCCN1C2=NC(=NC(=C2)C3(CC3)[S@](=N)(=O)C)C4=C5C=CNC5=NC=C4 [AZD6738]; settings: max 10 µM
Method in brief: as §1

[23] = compound: O=C(Nc1ccc2[nH]nc(-c3ccncc3)c2c1)[C@@H]1CCN(CC(=O)N2CCN(c3ccc(-c4ncccn4)cc3)CC2)C1; settings: max 5 µM
Method in brief: as §1

[24] = compound: CC(C)n1c(=O)n(C)c2cnc3cc(F)c(-c4ccc(OCCCN5CCCCC5)nc4)cc3c21 [AZD1390]; settings: max 0.3 µM
Method in brief: as §1

[25] = compound: CN(CC[C@H](CSC1=CC=CC=C1)NC2=C(C=C(C=C2)S(=O)(=O)NC(=O)C3=CC=C(C=C3)N4CCC(CC4)[C@H](C5=CC=CC=C5C6=CC=C(C=C6)Cl)O)S(=O)(=O)C(F)(F)F)CCO [AZD4320]; settings: max 1 µM
Method in brief: as §1

[26] = compound: CS(=O)(=O)CCNCc1ccc(-c2ccc3ncnc(Nc4ccc(OCc5cccc(F)c5)c(Cl)c4)c3c2)o1 [Lapatinib]; settings: max 10 µM
Method in brief: as §1

[27] = compound: C[C@@H](c1ccc2nccn2c1)n1nnc2ncc(-c3cnn(C)c3)nc21 [Savolitinib]; settings: max 1 µM
Method in brief: as §1

[28] = compound: CN(C)CCCOc1ccc(-c2ccc3ncc4c(c3c2)n(C2CCOCC2)c(=O)n4C)cn1 [AZD0156]; settings: max 3 µM
Method in brief: as §1

[29] = compound: O=C(c1cc(Cc2n[nH]c(=O)c3ccccc23)ccc1F)N1CCN(C(=O)C2CC2)CC1 [Olaparib]; settings: max 10 µM
Method in brief: as §1

[30] = compound: C1CC(C1)(C(=O)[O-])C(=O)[O-].N.N.[Pt+2] [Carboplatin]; settings: max 10 µM
Method in brief: as §1

[31] = compound: COc1cc(Nc2ncc3c(n2)-c2ccc(Cl)cc2C(c2c(F)cccc2OC)=NC3)ccc1C(=O)O [Alisertib]; settings: max 10 µM
Method in brief: as §1

[32] = compound: CC(=O)O[C@H]1C(=O)[C@@]2(C)[C@H]([C@H](OC(=O)c3ccccc3)[C@]3(O)C[C@H](OC(=O)[C@H](O)[C@@H](NC(=O)c4ccccc4)c4ccccc4)C(C)=C1C3(C)C)[C@]1(OC(C)=O)CO[C@@H]1C[C@@H]2O [Paclitaxel]; settings: max 3 µM
Method in brief: as §1

[33] = compound: CC1(C)CCC(CN2CCN(c3ccc(C(=O)NS(=O)(=O)c4ccc(NCC5CCOCC5)c([N+](=O)[O-])c4)c(Oc4cnc5[nH]ccc5c4)c3)CC2)=C(c2ccc(Cl)cc2)C1 [Venetoclax]; settings: max 1 µM
Method in brief: as §1

[34] = compound: Cn1cnc2c(F)c(Nc3ccc(Br)cc3Cl)c(C(=O)NOCCO)cc21 [Selumetinib]; settings: max 10 µM
Method in brief: as §1

[35] = compound: COc1cccc(OCCCN)c1-c1cc(Nc2cnc(C#N)cn2)n[nH]1 [Prexasertib]; settings: max 1 µM
Method in brief: as §1

Cell Line | IC50, cell viability 72 h [1] [nM] | IC50, cell viability 72 h [2] [nM] | IC50, cell viability 72 h [3] [nM] | IC50, cell viability 72 h [4] [nM] | IC50, cell viability 72 h [5] [nM] | IC50, cell viability 72 h [6] [nM] | IC50, cell viability 72 h [7] [nM] | IC50, cell viability 72 h [8] [nM] | IC50, cell viability 72 h [9] [nM] | IC50, cell viability 72 h [10] [nM] | IC50, cell viability 72 h [11] [nM] | IC50, cell viability 72 h [12] [nM] | IC50, cell viability 72 h [13] [nM] | IC50, cell viability 72 h [14] [nM] | IC50, cell viability 72 h [15] [nM] | IC50, cell viability 72 h [16] [nM] | IC50, cell viability 72 h [17] [nM] | IC50, cell viability 72 h [18] [nM] | IC50, cell viability 72 h [19] [nM] | IC50, cell viability 72 h [20] [nM] | IC50, cell viability 72 h [21] [nM] | IC50, cell viability 72 h [22] [nM] | IC50, cell viability 72 h [23] [nM] | IC50, cell viability 72 h [24] [nM] | IC50, cell viability 72 h [25] [nM] | IC50, cell viability 72 h [26] [nM] | IC50, cell viability 72 h [27] [nM] | IC50, cell viability 72 h [28] [nM] | IC50, cell viability 72 h [29] [nM] | IC50, cell viability 72 h [30] [nM] | IC50, cell viability 72 h [31] [nM] | IC50, cell viability 72 h [32] [nM] | IC50, cell viability 72 h [33] [nM] | IC50, cell viability 72 h [34] [nM] | IC50, cell viability 72 h [35] [nM]
EW-11 (Ewing's Sarcoma) | > 3000 | > 1000 | > 10000 | > 20000 | 55.7 | 4160 | > 10000 | 1000 | > 10000 | 8.46 | > 1 | > 10000 | > 10000 | > 2000 | 212 | > 10000 | 423 | 5630 | 6380 | > 1000 | > 1000 | 5930 | > 5000 | > 300 | 210 | > 10000 | > 1000 | > 3000 | > 10000 | > 10000 | > 10000 | 35.6 | > 1000 | > 10000 | 62.2
GAMG (Glioblastoma) | 1690 | > 1000 | > 10000 | > 20000 | 88.1 | 4440 | 8420 | 3590 | > 10000 | 55.5 | > 1 | > 10000 | 2980 | 1710 | 237 | > 10000 | > 1000 | > 10000 | > 10000 | > 1000 | > 1000 | > 10000 | > 5000 | > 300 | > 1000 | > 10000 | > 1000 | > 3000 | > 10000 | > 10000 | 2460 | 7.35 | > 1000 | > 10000 | 82.9
HH (T-Cell Non-Hodgkin's Lymphoma) | > 3000 | > 1000 | > 10000 | > 20000 | > 300 | > 10000 | > 10000 | > 10000 | > 10000 | > 300 | > 1 | > 10000 | > 10000 | > 2000 | > 1000 | > 10000 | 341 | > 10000 | > 10000 | > 1000 | > 1000 | > 10000 | > 5000 | > 300 | > 1000 | > 10000 | > 1000 | > 3000 | > 10000 | > 10000 | > 10000 | > 3000 | > 1000 | > 10000 | 186
HuCCT1 (Biliary Tract Carcinoma) | 583 | 314 | > 10000 | > 20000 | > 300 | > 10000 | > 10000 | > 10000 | > 10000 | 184 | > 1 | > 10000 | > 10000 | 918 | 710 | 6750 | > 1000 | > 10000 | > 10000 | > 1000 | 780 | 4360 | 1790 | > 300 | > 1000 | > 10000 | > 1000 | > 3000 | > 10000 | > 10000 | > 10000 | 294 | > 1000 | 6720 | 35.4
KS-1 (Glioblastoma) | > 3000 | 927 | > 10000 | > 20000 | > 300 | > 10000 | > 10000 | 3460 | > 10000 | > 300 | > 1 | > 10000 | > 10000 | > 2000 | > 1000 | > 10000 | > 1000 | > 10000 | > 10000 | > 1000 | 264 | > 10000 | > 5000 | > 300 | > 1000 | > 10000 | > 1000 | > 3000 | > 10000 | > 10000 | 3510 | 375 | > 1000 | > 10000 | 539
